Assay results published in ChEMBL document CHEMBL1201862, “PubChem BioAssay data set” (2004).
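Briefly, cells in 96-well plates were exposed to five compound concentrations for 48 h, and endpoints were estimated by linear interpolation. GI50: concentration for 50% inhibition of growth.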 Activity calls are given as the source filed them. No stated cut-off is given here; in the data, active = GI50 up to about 1.1 µM and inactive = higher.

How the values were obtained:
Experiment in all cases: growth of human tumour cells (NCI), 48 h
SNB-78 = test system: SNB-78
OVCAR-5 = test system: OVCAR-5
XF498 = test system: XF498
TK-10 = test system: TK-10
HT-29 = test system: HT-29
DU-145 = test system: DU-145
LOX IMVI = test system: LOX IMVI
KM12 = test system: KM12
SN12C = test system: SN12C
SNB-75 = test system: SNB-75
NCI-H522 = test system: NCI-H522
SK-OV-3 = test system: SK-OV-3
OVCAR-4 = test system: OVCAR-4
K562 = test system: K562
UACC-257 = test system: UACC-257
A498 = test system: A498
NCI-H226 = test system: NCI-H226
ACHN = test system: ACHN
HCT-15 = test system: HCT-15
RPMI-8226 = test system: RPMI-8226
DMS-114 = test system: DMS-114
DLD-1 = test system: DLD-1
EKVX = test system: EKVX
OVCAR-3 = test system: OVCAR-3
T47D = test system: T47D
DMS-273 = test system: DMS-273
HCC 2998 = test system: HCC 2998
M19-MEL = test system: M19-MEL
MCF7 = test system: MCF7
SNB-19 = test system: SNB-19
IGROV-1 = test system: IGROV-1
OVCAR-8 = test system: OVCAR-8
BT-549 = test system: BT-549
KM-20L2 = test system: KM-20L2
HOP-62 = test system: HOP-62
SF-539 = test system: SF-539
UO-31 = test system: UO-31
A549 = test system: A549
LXFL 529 = test system: LXFL 529
CAKI-1 = test system: CAKI-1
MDA-N = test system: MDA-N
COLO 205 = test system: COLO 205
HL-60 = test system: HL-60
HOP-92 = test system: HOP-92
SK-MEL-2 = test system: SK-MEL-2
NCI/ADR-RES = test system: NCI/ADR-RES
SF-295 = test system: SF-295
SK-MEL-5 = test system: SK-MEL-5
NCI-H23 = test system: NCI-H23
U-251 = test system: U-251
NCI-H460 = test system: NCI-H460
SF-268 = test system: SF-268
MDA-MB-231 = test system: MDA-MB-231
786-0 = test system: 786-0
PC-3 = test system: PC-3
Malme-3M = test system: Malme-3M
SR = test system: SR
CCRF-CEM = test system: CCRF-CEM
M14 = test system: M14
Hs-578T = test system: Hs-578T
MDA-MB-435 = test system: MDA-MB-435
HCT-116 = test system: HCT-116
SK-MEL-28 = test system: SK-MEL-28
UACC-62 = test system: UACC-62
RXF 393 = test system: RXF 393
SW-620 = test system: SW-620
MOLT-4 = test system: MOLT-4

c1nc(N2CC2)c2cnn(C3CCCCO3)c2n1 (configuration not stated)
GI50 (SNB-78): > 100 µM (inactive)
GI50 (OVCAR-5): > 100 µM (inactive)
GI50 (XF498): > 100 µM (inactive)
GI50 (TK-10): > 100 µM (inactive)
GI50 (HT-29): > 100 µM (inactive)
GI50 (DU-145): > 100 µM (inactive)
GI50 (LOX IMVI): > 100 µM (inactive)
GI50 (KM12): > 100 µM (inactive)
GI50 (SN12C): > 100 µM (inactive)
GI50 (SNB-75): > 100 µM (inactive)
GI50 (NCI-H522): > 100 µM (inactive)
GI50 (SK-OV-3): > 100 µM (inactive)
GI50 (OVCAR-4): > 100 µM (inactive)
GI50 (K562): 36.6 µM (inactive)
GI50 (UACC-257): > 100 µM (inactive)
GI50 (A498): > 100 µM (inactive)
GI50 (NCI-H226): > 100 µM (inactive)
GI50 (ACHN): > 100 µM (inactive)
GI50 (HCT-15): > 100 µM
GI50 (RPMI-8226): > 100 µM (inactive)
GI50 (DMS-114): > 100 µM (inactive)
GI50 (DLD-1): > 100 µM (inactive)
GI50 (EKVX): > 100 µM (inactive)
GI50 (OVCAR-3): > 100 µM (inactive)
GI50 (T47D): > 100 µM (inactive)
GI50 (DMS-273): > 100 µM (inactive)
GI50 (HCC 2998): > 100 µM (inactive)
GI50 (M19-MEL): > 100 µM (inactive)
GI50 (MCF7): > 100 µM (inactive)
GI50 (SNB-19): > 100 µM (inactive)
GI50 (IGROV-1): > 100 µM (inactive)
GI50 (OVCAR-8): > 100 µM (inactive)
GI50 (BT-549): > 100 µM (inactive)
GI50 (KM-20L2): > 100 µM (inactive)
GI50 (HOP-62): > 100 µM (inactive)
GI50 (SF-539): > 100 µM (inactive)
GI50 (UO-31): > 100 µM (inactive)
GI50 (A549): > 100 µM (inactive)
GI50 (LXFL 529): > 100 µM (inactive)
GI50 (CAKI-1): > 100 µM (inactive)
GI50 (MDA-N): > 100 µM (inactive)
GI50 (COLO 205): > 100 µM (inactive)
GI50 (HL-60): > 100 µM (inactive)
GI50 (HOP-92): > 100 µM (inactive)
GI50 (SK-MEL-2): > 100 µM (inactive)
GI50 (NCI/ADR-RES): > 100 µM (inactive)
GI50 (SF-295): > 100 µM (inactive)
GI50 (SK-MEL-5): > 100 µM (inactive)
GI50 (NCI-H23): > 100 µM (inactive)
GI50 (U-251): > 100 µM (inactive)
GI50 (NCI-H460): > 100 µM (inactive)
GI50 (SF-268): > 100 µM (inactive)
GI50 (MDA-MB-231): > 100 µM (inactive)
GI50 (786-0): > 100 µM (inactive)
GI50 (PC-3): > 100 µM (inactive)
GI50 (Malme-3M): > 100 µM (inactive)
GI50 (SR): > 100 µM (inactive)
GI50 (CCRF-CEM): > 100 µM (inactive)
GI50 (M14): > 100 µM (inactive)
GI50 (Hs-578T): > 100 µM (inactive)
GI50 (MDA-MB-435): > 100 µM (inactive)
GI50 (HCT-116): > 100 µM (inactive)
GI50 (SK-MEL-28): > 100 µM (inactive)
GI50 (UACC-62): > 100 µM (inactive)
GI50 (RXF 393): > 100 µM (inactive)
GI50 (SW-620): > 100 µM (inactive)
GI50 (MOLT-4): > 100 µM (inactive)
